Test [1] deals with murine bone marrow-isolated monocytes or bone marrow-derived macrophages. The experiment in a line: In vitro stimulation of murine monocytes / bone marrow-derived macrophages, cytokine ELISA. It is filed as cell-based. How it is done: Naïve bone marrow monocytes were isolated from BM cells. Briefly, hind legs were removed from 3 mice, cleaned from surrounding muscles. The femur and tibia bones were trimmed at their extremities, the BM content was flushed out with cold PBS using a 10 ml syringe and a 25G needle and filtered through a 40 μm strainer. Red blood cells (RBC) were lysed with 1× RBC lysis buffer (Biolegend) for 5 min. on ice. CD11b+ monocytes were further purified by positive selection using a cocktail of CD11 b magnetic beads (Miltenyi Biotec, #130-049-601) and magnetizing MS columns (Miltenyi Biote) according to the manufacturer's instructions. Subsequently, monocytes were seeded in F-bottom 96-well plates at 1×10^5 cells per well in RPMI1640 supplemented with 10% heat-inactivated fetal bovine serum, penicillin (100 U/ml), streptomycin (100 μg/ml), L-glutamine (2 mM) […]. Monocytes were activated with 10 μg/ml LPS (Sigma-Aldrich) and subjected to treatment with 6-BT (10/100 μM), LysoPC(20:0) (10/50 μM), MA-GPC (10/50/100 μM), or appropriate vehicle. Cells were kept in a final volume of 200 μl/well for 24 hours, after which supernatant was harvested and stored at −80° C.
Bone marrow-derived macrophages (BMDM) and DC (BMDC) were obtained by differentiating freshly isolated BM cells from femur and tibia bones (as above described) of C57/B16 mice (N=3 per experiment). For BMDM, BM cells were seeded at 3×10^6 cells per 10 cm dish and cultured for 7 days in 12 ml RPMI1640 medium with 20% fetal bovine serum, 30% L-929 cell conditioned media, as source of murine macrophage colony-stimulating factor (M-CSF). For BMDC, BM cells were seeded at 0.5×10^6/ml cells in 25 ml in 10 cm dishes and cultured for 7 days in presence of GM-CSF in 5% FBS-RPMI1640 medium. After differentiation, BMDM/DCs were harvested, counted and seeded at a density of 1×10^5 cells per well in a F-bottom 96-well plate and left to adhere for 20 hours before experiments were performed. Macrophages were activated with 10 μg/ml polyinosinic-polycytidylic acid poly(I.C) (InvivoGen) for 24 hours in presence or not of 6-BT (10/100 μM), LysoPC(20:0) (10/50 μM), or MA-GPC (10/50/100 μM) in a final volume of 200 μl/well. At the end of the assay, supernatant was harvested and stored at −80° C.
Specific ELISAs (R&D Systems) were utilized to measure the concentration of TNFα, IFNβ, and IFNγ in cell supernatant of murine monocytes, macrophages ad T cells, respectively, according to the manufacturer's instructions. The concentration of insulin after 24-hour treatment with metabolites or after GSIS were determined using Rat insulin ELISA (Mercodia) according to the manufacturer's instructions. GSIS was calculated by subtracting the concentration of insulin at 1 mM glucose to the insulin rate at 22 mM glucose.
Here, murine bone marrow-isolated monocytes (Christ A., Western Diet Triggers NLRP3-Dependent Innate Immune Reprogramming. Cell 2018) or bone marrow-derived macrophages (Swanson K V, A noncanonical function of cGAMP in inflammasome priming and activation. JEM 2017) were exposed for 24 hours to the indicated concentrations of 6-BT (10-100 μM) in presence or not of 10 μg/ml LPS, 10 μg/ml P3C or 10 μg/ml poly(I.C).
(In general: ELISA stands for enzyme-linked immunosorbent assay.)

In another test the test system is INS1E beta cells. In words: Seahorse XF intracellular metabolism, INS1E beta cells. It is filed as cell-based, rat. From the text: Lastly, it was investigated whether 6-BT may influence the mitochondrial metabolism of beta cells, which rely on ATP and mitochondrial metabolite production for insulin exocytosis. […] Intracellular metabolism measured using a Seahorse XF Analyzer Uchimura T., The Innate Immune Sensor NLRC3 Acts as a Rheostat that Fine-Tunes T Cell Responses in Infection and Autoimmunity.

With `N[C@@H](Cc1c[nH]c2cc(Br)ccc12)C(=O)O` [6-BT, 6-bromotryptophan], the “secretion of TNFα upon TLR4 engagement” value in test [1] (10-100 μM, 24 hours, 10 μg/ml LPS, ELISA (FIG. 14)) is reported as “can inhibit the secretion”. Also, the “secretion of TNFα upon TLR2 engagement” value in test [1] (10-100 μM, 24 hours, 10 μg/ml P3C, ELISA (FIG. 14)) was “can inhibit the secretion”. Further, in test [1] (10-100 μM, 24 hours, 10 μg/ml poly(I.C), ELISA (FIG. 14)), the “secretion of IFNbeta upon TLR3 activation” value was “can inhibit the secretion”. The “type 1 IFN secretion” value in test [1] (PolyI:C for 24 hours, TLR3 stimulation (FIG. 9)) is listed as “impair type 1 IFN secretion”. Also, the “anti-inflammatory effects on monocytes” value in test [1] (monocytes isolated from murine bone marrow, 6-BT vs tryptophan) is on record as “anti-inflammatory effects are specific for the 6-bromotryptophan molecule”. In addition, the “cytokine secretion by monocytes” value in test [1] (murine monocytes CD11b+ activated with LPS (10 μg/ml) for 24 hours, TLR4 stimulation (FIG. 8)) is reported as “halt cytokine secretion”. Also, in the test on INS1E beta cells (INS1E beta cells (FIG. 24)), the “mitochondria metabolism at steady-state” value is “increased mitochondria metabolism”. Moreover, the “mitochondria metabolism under hyperglycemia” value in the test with INS1E beta cells (INS1E beta cells, 25 mM glucose (FIG. 24)) is given as “increased mitochondria metabolism”.

The values above are taken from patent publication US12648928B2, “Intervention strategy for prevention or treatment of diabetes mellitus, autoimmune disease, inflammatory disease or cardiovascular disease” (ACADEMISCH MEDISCH CENTRUM, priority 2020, dated 2026).
